Measurements published in patent publication US9724318B2, “Compositions for improving mental concentration” (priority 2001, dated 2017).

Test: acute toxic test using a mouse, oral administration
Format: in vivo
Details: oral administration at 5 g/kg
Source text: The theanine used in the present invention has high safety. […] Also, especially L-theanine is known as a main component of umami (tastiness) of the green tea, and is also used as a food additive giving umami, without the limitation of its added amount under the regulation for food hygiene. Moreover, contrary to the conventional drugs, since there is no adverse action by theanine at all, the mind-concentration is safely and effectively achieved according to the composition of the present invention, whereby working efficiency, learning efficiency or the like, or sports performance can be improved.

## CCNC(=O)CC[C@H](N)C(=O)O [theanine, γ-glutamyl ethylamide]
  abnormalities in the general states, weight and the like: no abnormalities
  cases of death in acute toxic test: no cases of death
